Test results reported in article PMC3349126, “Evaluation of the Cytotoxicity of Satureja spicigera and Its Main Compounds” (The Scientific World Journal, 2012).
≈ marks a conversion by molar mass, not a printed value. Where a name gives a salt, the structure may show the parent alone.

Legend:
[1] = Brine shrimp lethality assay (BSA); conditions: Artemia salina (brine shrimp) nauplii, in vivo, probit analysis, read-out: LC50 against Artemia salina larvae
Experimental: Gohari et al. reported the method which was adopted to study the cytotoxic activity of the compounds [11]. Water life brand brine shrimp (Artemia salina) eggs were purchased from the Shalat Center (Tehran). The eggs were hatched in a flask containing 300 mL artificial seawater made […]. The flask was well aerated with the aid of an air pump and kept in a water bath at 29-30°C. A bright light was left on. The nauplii hatched within 48 h. The extracts and pure compounds were dissolved in normal saline. Different concentrations were obtained by serial dilution. Solution of each concentration (500 μL) was transferred into clean 24-well plates via a pipette, and aerated seawater having 10–20 nauplii (500 μL) was added. A check count was performed and the number alive noted after 24 h. The mortality end point of the bioassay was determined as the absence of controlled forward motion during 30 seconds of observation. […] Lethality percentage was determined and LC50 calculated based on probit analysis with 95% of confidence interval [11].

[2] = test system: T47D (human, breast, ductal carcinoma); assay: MTT cytotoxicity assay, T47D; type: cell-based; conditions: 48 hours
Experimental: (§1) Four cancerous cell lines HT29/219 (human, colon, epithelial-like, carcinoma), Caco2 (human, colon, adenocarcinoma), NIH-3T3 (Swiss NIH mouse, embryo fibroblast), and T47D (human, breast, ductal carcinoma) were purchased from the Pasteur Institute, Tehran, Iran. The cells were maintained in RPMI 1640, supplemented with 10% fetal bovine serum, 0.28 units/mL insulin, 100 μg/mL streptomycin, 100 units/mL penicillin, and 0.3 mg/mL glutamine. The cells were grown at 37°C in a humidified atmosphere of 5% CO2, in air.
(§2) The cytotoxicity of the compounds isolated from S. spicigera was assayed using the MTT cytotoxicity assay. The cells (3 × 10^ 4) were plated in 500 μL of medium/well in 48-well plates (NUNC Cell Culture Flasks, Denmark). After an overnight incubation at 37°C, in 5% CO2, and a humidified atmosphere, the samples were added to the cells to a final concentration of 500 μg/mL. “Methotrexate” (positive control) and pure compounds were examined at concentrations ranging from 5, 10, 20, 40, 80, and 100 μg/mL. The plates were incubated at 37°C, in 5% CO2, humidified atmosphere, for 48 hours. After 48 hours, 50 μL of 5 mg/mL MTT (dissolved in PBS) was added per well. After three hours of incubation, the MTT solution was removed and the cells were washed with 100 μL of PBS, twice. One hundred and fifty microlitres of DMSO was added per well, to solubilize the formazan crystals. The optical densities of the wells were then measured at 570 nm (690 nm reference wavelength). By referring to the control (medium with DMSO), the cell survival was assessed.

[3] = test system: Caco-2 (colon adenocarcinoma); assay: MTT cytotoxicity assay, Caco-2; type: cell-based; conditions: Homo sapiens, 48 hours
Experimental: as §1, §2

[4] = test system: HT-29 (colon adenocarcinoma); assay: MTT cytotoxicity assay, HT-29; type: cell-based; conditions: Homo sapiens, 48 hours
Experimental: as §1, §2

[5] = test system: NIH 3T3 (Swiss embryo fibroblast); assay: MTT cytotoxicity assay, NIH 3T3; type: cell-based; conditions: Mus musculus, NIH3T3, 48 hours
Experimental: as §1, §2

[6] = test system: HT29/219, Caco2, NIH-3T3, and T47D; assay: MTT cytotoxicity assay, all four cell lines (statement in words); type: cell-based; conditions: 48 hours
Experimental: as §1
The cytotoxicity of the compounds isolated from S. spicigera was assayed using the MTT cytotoxicity assay. The cells (3 × 10^ 4) were plated in 500 μL of medium/well in 48-well plates (NUNC Cell Culture Flasks, Denmark). After an overnight incubation at 37°C, in 5% CO2, and a humidified atmosphere, the samples were added to the cells to a final concentration of 500 μg/mL. “Methotrexate” (positive control) and pure compounds were examined at concentrations ranging from 5, 10, 20, 40, 80, and 100 μg/mL. The plates were incubated at 37°C, in 5% CO2, humidified atmosphere, for 48 hours. After 48 hours, 50 μL of 5 mg/mL MTT (dissolved in PBS) was added per well. […] The optical densities of the wells were then measured at 570 nm (690 nm reference wavelength). By referring to the control (medium with DMSO), the cell survival was assessed.

Row | melting point [°C] | SMILES | LC50 at 24 h [1] [µg/mL] | IC50 [2] [µg/mL] | IC50 [3] [µg/mL] | IC50 [4] [µg/mL] | IC50 [5] [µg/mL] | inhibition of the cell growth or proliferation (in words) [6]
1 | – | COc1ccc2cc3[n+](cc2c1OC)CCc1cc2c(cc1-3)OCO2 [berberine hydrochloride, reference compound] | 26 | – | – | – | – | –
2 | – | O=C(c1c(O)cc(O)cc1O)C(O)Cc1ccc(O)cc1 (stereo not shown) [compound 7, nubigenol] | – | 132 (≈ 455 µM) | 143 (≈ 493 µM) | > 150 | 112 (≈ 386 µM) | –
3 | – | O=C1CC(c2cc(O)cc(O)c2)Oc2cc(O)cc(O)c21 (stereo not shown) [compound 8, 5,7,3′,5′-Tetrahydroxy Flavanone] | 2 (≈ 6.94 µM) | > 150 | > 150 | > 150 | 101 (≈ 349 µM) | did not show significant inhibition
4 | 256 | COc1cc(C2CC(=O)c3c(O)cc(OC4OC(COC5OC(C)C(O)C(O)C5O)C(O)C(O)C4O)cc3O2)ccc1O [compound 9, 5,4′-Dihydroxy-3′-methoxyflavanone-7-(6′′-O-α-L-rhamnopyranosyl)-β-D-glucopyranoside] | – | 98.7 (≈ 162 µM) | > 150 | > 150 | 140 (≈ 230 µM) | –
